From paper PMC9501633, “Synthesis, Characterisation and Mechanism of Action of Anticancer 3-Fluoroazetidin-2-ones” (Pharmaceuticals, 2022)

Legend:
[1] = test system: CCRF-CEM; assay: NCI 60 cell line screen, Leukaemia; assay type: cell-based, human; conditions: one dose 10 µM; for inhibition at 10 µM: Homo sapiens
[2] = test system: HL-60(TB); assay: NCI 60 cell line screen, Leukaemia; assay type: cell-based, human; conditions: one dose 10 µM; for inhibition at 10 µM: Homo sapiens
[3] = test system: K-562; assay: NCI 60 cell line screen, Leukaemia; assay type: cell-based, human; conditions: for inhibition at 10 µM: Homo sapiens, K562, one dose 10 µM; for Growth %: one dose 10 µM
[4] = test system: MOLT-4; assay: NCI 60 cell line screen, Leukaemia; assay type: cell-based, human; conditions: one dose 10 µM; for inhibition at 10 µM: Homo sapiens
[5] = test system: SR; assay: NCI 60 cell line screen, Leukaemia; assay type: cell-based, human; conditions: one dose 10 µM; for inhibition at 10 µM: Homo sapiens
[6] = test system: A549/A TCC; assay: NCI 60 cell line screen, NSCLung; assay type: cell-based, human; conditions: one dose 10 µM; for inhibition at 10 µM: Homo sapiens
[7] = test system: NCI-H322M; assay: NCI 60 cell line screen, NSCLung; assay type: cell-based, human; conditions: one dose 10 µM; for inhibition at 10 µM: Homo sapiens
[8] = test system: NCI-H522; assay: NCI 60 cell line screen, NSCLung; assay type: cell-based, human; conditions: one dose 10 µM; for inhibition at 10 µM: Homo sapiens
[9] = test system: HCT-15; assay: NCI 60 cell line screen, Colon; assay type: cell-based, human; conditions: one dose 10 µM; for inhibition at 10 µM: Homo sapiens
[10] = test system: HT29; assay: NCI 60 cell line screen, Colon; assay type: cell-based, human; conditions: for inhibition at 10 µM: Homo sapiens, HT-29, one dose 10 µM; for Growth %: one dose 10 µM
[11] = test system: KM12; assay: NCI 60 cell line screen, Colon; assay type: cell-based, human; conditions: one dose 10 µM; for inhibition at 10 µM: Homo sapiens
[12] = test system: SF-268; assay: NCI 60 cell line screen, CNS; assay type: cell-based, human; conditions: one dose 10 µM; for inhibition at 10 µM: Homo sapiens
[13] = test system: SF-295; assay: NCI 60 cell line screen, CNS; assay type: cell-based, human; conditions: one dose 10 µM; for inhibition at 10 µM: Homo sapiens
[14] = test system: SNB-19; assay: NCI 60 cell line screen, CNS; assay type: cell-based, human; conditions: one dose 10 µM; for inhibition at 10 µM: Homo sapiens
[15] = test system: U251; assay: NCI 60 cell line screen, CNS; assay type: cell-based, human; conditions: for inhibition at 10 µM: Homo sapiens, U-251, one dose 10 µM; for Growth %: one dose 10 µM
[16] = test system: MALME-3M; assay: NCI 60 cell line screen, Melanoma; assay type: cell-based, human; conditions: one dose 10 µM; for inhibition at 10 µM: Homo sapiens
[17] = test system: SK-MEL-2; assay: NCI 60 cell line screen, Melanoma; assay type: cell-based, human; conditions: one dose 10 µM; for inhibition at 10 µM: Homo sapiens
[18] = test system: SK-MEL-28; assay: NCI 60 cell line screen, Melanoma; assay type: cell-based, human; conditions: one dose 10 µM; for inhibition at 10 µM: Homo sapiens
[19] = test system: UACC-257; assay: NCI 60 cell line screen, Melanoma; assay type: cell-based, human; conditions: one dose 10 µM; for inhibition at 10 µM: Homo sapiens
[20] = test system: IGROV1; assay: NCI 60 cell line screen, Ovarian; assay type: cell-based, human; conditions: for inhibition at 10 µM: Homo sapiens, IGROV-1, one dose 10 µM; for Growth %: one dose 10 µM
[21] = test system: OVCAR-3; assay: NCI 60 cell line screen, Ovarian; assay type: cell-based, human; conditions: one dose 10 µM; for inhibition at 10 µM: Homo sapiens
[22] = test system: OVCAR-4; assay: NCI 60 cell line screen, Ovarian; assay type: cell-based, human; conditions: one dose 10 µM; for inhibition at 10 µM: Homo sapiens
[23] = test system: NCI/ADR-RES; assay: NCI 60 cell line screen, Ovarian; assay type: cell-based, human; conditions: one dose 10 µM; for inhibition at 10 µM: Homo sapiens
[24] = test system: 786–0; assay: NCI 60 cell line screen, Renal; assay type: cell-based, human; conditions: 786-0, one dose 10 µM; for inhibition at 10 µM: Homo sapiens
[25] = test system: SN12C; assay: NCI 60 cell line screen, Renal; assay type: cell-based, human; conditions: one dose 10 µM; for inhibition at 10 µM: Homo sapiens
[26] = test system: TK-10; assay: NCI 60 cell line screen, Renal; assay type: cell-based, human; conditions: one dose 10 µM; for inhibition at 10 µM: Homo sapiens
[27] = test system: PC-3; assay: NCI 60 cell line screen, Prostate; assay type: cell-based, human; conditions: one dose 10 µM; for inhibition at 10 µM: Homo sapiens
[28] = test system: T-47D; assay: NCI 60 cell line screen, Breast; assay type: cell-based, human; conditions: one dose 10 µM; for inhibition at 10 µM: Homo sapiens, T47D
[29] = test system: MDA-MB-468; assay: NCI 60 cell line screen, Breast; assay type: cell-based, human; conditions: one dose 10 µM; for inhibition at 10 µM: Homo sapiens
[30] = test system: NCI 60 cell line panel; assay: NCI 60 cell line screen, whole panel; assay type: cell-based; conditions: for inhibition at 10 µM: Homo sapiens, 60 cell, one dose 10 μM, mean over the 60 cell lines, read-out: mean growth inhibition; for mean Growth %: one dose 10 µM, mean over the cell lines
Experimental: The antiproliferative effects of selected compounds 33, 37 and 43 were initially evaluated in the NCI 60 cell line screen at 10 μM concentration (see Supplementary Materials Table S3). […] . […] .
Compound 33 was next selected for evaluation in the NCI 60 cell line five-dose screen. The GI50 (50% growth inhibition), TGI (total growth inhibition) and LC50 (50% lethal concentration) were determined in the NCI panel of 60 cell lines, using the sulphorhodamine B (SRB) protein assay (Table 5). The GI50 value provides the growth inhibition of the selected compound, while the cytotoxic effect is evaluated in the LC50 value. […] . […] . Glioblastoma is an aggressive and fast-growing brain tumour with a median survival time of 9–16 months from diagnosis, and these tumours quickly evolve resistance to temozolomide chemotherapy, which is the only FDA-approved treatment. […] . Further mechanistic and cellular studies were carried out and are described below.
(§1) aData obtained from NCI in vitro human tumour cell screen 1 dose assay (10 µM). 33 (NCI

[31] = test system: leukaemia panel; assay: NCI 60 cell line one-dose screen, panel mean; assay type: cell-based; conditions: Homo sapiens, one dose 10 μM, read-out: mean growth inhibition
Experimental: The antiproliferative effects of selected compounds 33, 37 and 43 were initially evaluated in the NCI 60 cell line screen at 10 μM concentration (see Supplementary Materials Table S3).
as §1

CCOc1ccc(C2N(c3cc(OC)c(OC)c(OC)c3)C(=O)C2(F)F)cc1 (centres unmarked) [Compound 37, 4-(4-Ethoxyphenyl)-3,3-difluoro-1-(3,4,5-trimethoxyphenyl)azetidin-2-one]
inhibition at 10 µM [1]: 89.8% | Growth % [1]: 10.2% | inhibition at 10 µM [2]: 116% | Growth % [2]: -15.97% | inhibition at 10 µM [3]: 91.5% | Growth % [3]: 8.49% | inhibition at 10 µM [4]: 81.9% | Growth % [4]: 18.14% | inhibition at 10 µM [5]: 83.8% | Growth % [5]: 16.25% | inhibition at 10 µM [6]: 66.4% | Growth % [6]: 33.56% | inhibition at 10 µM [7]: 32.8% | Growth % [7]: 67.23% | inhibition at 10 µM [8]: 80.7% | Growth % [8]: 19.28% | inhibition at 10 µM [9]: 77.5% | Growth % [9]: 22.55% | inhibition at 10 µM [10]: 87.7% | Growth % [10]: 12.27% | inhibition at 10 µM [11]: 72% | Growth % [11]: 27.97% | inhibition at 10 µM [12]: 47.6% | Growth % [12]: 52.38% | inhibition at 10 µM [13]: 43.7% | Growth % [13]: 56.32% | inhibition at 10 µM [14]: 45.9% | Growth % [14]: 54.14% | inhibition at 10 µM [15]: 63.8% | Growth % [15]: 36.19% | inhibition at 10 µM [16]: 36.9% | Growth % [16]: 63.07% | inhibition at 10 µM [17]: 8.22% | Growth % [17]: 91.78% | inhibition at 10 µM [18]: 33.2% | Growth % [18]: 66.8% | inhibition at 10 µM [19]: 41.3% | Growth % [19]: 58.69% | inhibition at 10 µM [20]: 62.2% | Growth % [20]: 37.8% | inhibition at 10 µM [21]: 92.8% | Growth % [21]: 7.25% | inhibition at 10 µM [22]: 50.4% | Growth % [22]: 49.59% | inhibition at 10 µM [23]: 71.1% | Growth % [23]: 28.94% | Growth % [24]: 64.68% | inhibition at 10 µM [24]: 35.3% | inhibition at 10 µM [25]: 49% | Growth % [25]: 50.97% | inhibition at 10 µM [26]: -3.32% | Growth % [26]: 103.32% | inhibition at 10 µM [27]: 62.7% | Growth % [27]: 37.3% | inhibition at 10 µM [28]: 30% | Growth % [28]: 70.03% | inhibition at 10 µM [29]: 65.1% | Growth % [29]: 34.89% | inhibition at 10 µM [30]: 59% | mean Growth % [30]: 41.05% | inhibition at 10 µM [31]: 91.4%

COc1ccc(C2N(c3cc(OC)c(OC)c(OC)c3)C(=O)C2(F)F)cc1F (centres unmarked) [Compound 43, 3,3-Difluoro-4-(3-fluoro-4-methoxyphenyl)-1-(3,4,5-trimethoxyphenyl)azetidin-2-one]
inhibition at 10 µM [1]: 87% | Growth % [1]: 12.96% | inhibition at 10 µM [2]: 99.1% | Growth % [2]: 0.94% | inhibition at 10 µM [3]: 89.5% | Growth % [3]: 10.5% | inhibition at 10 µM [4]: 81.3% | Growth % [4]: 18.67% | inhibition at 10 µM [5]: 81.3% | Growth % [5]: 18.7% | inhibition at 10 µM [6]: 51.4% | Growth % [6]: 48.65% | inhibition at 10 µM [7]: 8.79% | Growth % [7]: 91.21% | inhibition at 10 µM [8]: 82.5% | Growth % [8]: 17.54% | inhibition at 10 µM [9]: 80.6% | Growth % [9]: 19.44% | inhibition at 10 µM [10]: 88.8% | Growth % [10]: 11.16% | inhibition at 10 µM [11]: 77.1% | Growth % [11]: 22.9% | inhibition at 10 µM [12]: 47.1% | Growth % [12]: 52.94% | inhibition at 10 µM [13]: 51.7% | Growth % [13]: 48.29% | inhibition at 10 µM [14]: 47.1% | Growth % [14]: 52.93% | inhibition at 10 µM [15]: 58.4% | Growth % [15]: 41.61% | inhibition at 10 µM [16]: 35.9% | Growth % [16]: 64.09% | inhibition at 10 µM [17]: 15.4% | Growth % [17]: 84.61% | inhibition at 10 µM [18]: 22.8% | Growth % [18]: 77.22% | inhibition at 10 µM [19]: 50% | Growth % [19]: 50.01% | inhibition at 10 µM [20]: 55.8% | Growth % [20]: 44.2% | inhibition at 10 µM [21]: 88.4% | Growth % [21]: 11.64% | inhibition at 10 µM [22]: 41.7% | Growth % [22]: 58.34% | inhibition at 10 µM [23]: 67.1% | Growth % [23]: 32.94% | Growth % [24]: 75.35% | inhibition at 10 µM [24]: 24.6% | inhibition at 10 µM [25]: 45.1% | Growth % [25]: 54.92% | inhibition at 10 µM [26]: -5.64% | Growth % [26]: 105.64% | inhibition at 10 µM [27]: 64.1% | Growth % [27]: 35.89% | inhibition at 10 µM [28]: 34.3% | Growth % [28]: 65.69% | inhibition at 10 µM [29]: 55.5% | Growth % [29]: 44.48% | inhibition at 10 µM [30]: 56.4% | mean Growth % [30]: 43.57% | inhibition at 10 µM [31]: 86.3%
